From patent US9415069B2, “Immunosuppressive cells and methods of making and using thereof” (National Health Research Institutes, priority 2012, dated 2016)
Entries after “also recorded” stand apart in the source; their conditions may differ.

Key:
[1] = test system: human monocyte-derived dendritic cells (MDDCs); assay: Surface marker phenotype of human MDDCs by flow cytometry; type: cell-based; conditions: for effect on CD40 expression: human iMDDCs supplemented with GRO isoform, day 7
Method: Human monocyte-derived dendritic cells (MDDCs) were generated from leukaphereses obtained from healthy donors. Peripheral blood mononuclear cells (PBMCs) were purified by Fycoll-Hypaque Plus (GE Health-Pharmacia, Uppsala, Sweden) density centrifugation. CD14^+ monocytes were isolated using the human CD14^+ Cell Isolation Kit (MACS, Miltenyi Biotec, Inc., Auburn, Calif., USA) according to the manufacturer's instructions. The purified CD14^+ cells (1×10^6/mL) were subsequently cultured in 2 mL MSC-CM or α-MEM completed medium with 10% pooled AB-type human serum supplemented with rhGM-CSF (80 ng/mL) and rhIL-4 (80 ng/mL) (Peprotech, NJ) in the presence or absence of GRO chemokines to induce their differentiation into DCs. An additional 1 mL of medium containing the same concentrations of rhGM-CSF and rhIL-4 with or without GRO chemokines was added to each group of cells on day 3. Half-volume of culture medium was replaced with an equal volume of fresh medium containing the same concentrations of rhGM-CSF and rhIL-4 on day 5. Maturation of MDDCs (mature DCs, mMDDCs) was induced by adding 1 μg/mL LPS to the culture medium of iMDDCs on day 5 and cells were further cultured for another 48 hours. Phenotypic changes in immature DCs (iMDDCs) and mature DCs (mMDDCs) were monitored by FACS analysis on day 7. The study protocols were approved by the Institutional Review Board of Human Subject Research Ethics Committee of Academia Sinica (AS-IRB01-10113) and the Institutional Review Board of Research Ethics Committee of National Health Research Institutes (EC 1001101).
(§1) The phenotypic profiles of monocytes, iMDDCs and mMDDCs were obtained by staining 1×10^5 cells with fluorochrome-labeled antibodies (Abs) against CD11c, HLA-DR, CD80, CD86, CD83, CD40, and DC-SIGN. The fluorescence intensity was measured by flow cytometry. The corresponding isotype-matched controls used were FITC-IgG1, FITC-IgG2a, PE-IgG2a, and PE-IgG2b (BD Biosciences, San Jose, Calif., USA). Surface-labeled cells were analyzed using a FACS Calibur-flow cytometer (BD Biosciences). For cell purification, sorting was performed on a FACS Aria cell sorter (BD Biosciences). The purity of individual sorted cell populations was greater than 95%.

[2] = test system: immature MDDCs (iDCs); assay: Endocytosis test (FITC-dextran uptake); type: cell-based, human
Method: The endocytic activity of iMDDCs or mMDDCs was measured by analyzing the cellular uptake of FITC-dextran (40 kD, FD40S, Sigma-Aldrich) as quantified by flow cytomerty. Cells (5×10^4 cells/sample/96 well V bottom plate) were incubated in RPMI-1640 medium with 1 mg/mL FITC-dextran for 30 min at 37° C. After incubation, cells were washed twice with staining buffer to remove free reagent then fixed with 1% paraformaldehyde. The signal from FITC-dextran endocytosed by cells was analyzed by FACS. Data analysis was performed using the FlowJo version 5.7.2 software. The signal obtained for cells incubated with medium in the absence of FITC-dextran was used as negative control.

[3] = test system: mature MDDCs co-cultured with allogeneic T cells; assay: MLR assay (allogeneic T-cell proliferation, [3H]-thymidine); type: cell-based, human
Method: Monocyte-derived cells (3×10^4) at different stages of differentiation were irradiated at 30 Gy using an X-ray biological irradiator (X-ray R-2000, Rad Source Technologies, Inc, Alpharetta, Ga., USA) and then cultured with purified allogenic CD3 T cells (1:10) in complete culture medium in 96-well U-bottom plate. X-ray irradiated myeloid cells and allogenic T lymphocytes were placed in a humidified CO2 incubator at 37° C. After 96 hours, [^3H]-thymidine (1 μCi) was added to each well containing either monocytes-, iMDDCs-, or mMDDCs mixed with T cells, and further incubated for 16 hours. Cells were then harvested using a Filtermate 96-well harvester and radioactivity (cpm) measured as an index of cell proliferation in a Packard microplate scintillation and luminescence counter (Perkin-Elmer-Packard; Waltham, Mass., USA).

[4] = test system: MDDCs; assay: Real-time PCR of selected genes in MDDCs from 7-day cultures; type: cell-based, human; conditions: MDDC differentiation in presence of GRO-γ
Method: Total RNA was extracted with the Trizol reagent and converted to cDNA using a ReverTra Ace set (Toyobo Life Science, Osaka, Japan), according to manufacturer's instructions. Real-time PCR analysis was performed using an ABI Prism 7900 system (Applied Biosystems, Foster City, Calif., USA). Samples were treated according to the following program: 5° C. for 2 min, 94° C. for 10 min, and 40 cycles of 95° C. for 15 s and 60° C. for 1 min. Analyses were performed in triplicate. For each sample, the cycle threshold (Ct) values were determined. Results were normalized to the GAPDH gene on the same plate. The levels of mRNA expression in different cell groups were calculated using the 2ΔCt method. Intron-spanning primers specific for each gene were designed. Their sequences are as follows: human GAPDH, […] (forward primer, F, SEQ ID NO:4), […] (reverse primer, R, SEQ ID NO:5); human IL-10, […] (F, SEQ ID NO:6), […] (R, SEQ ID NO:7); human IDO, […] (F, SEQ ID NO:8), TGACCTTTGCCCCACACAT (R, SEQ ID NO:9); human matrix-metallopeptidase-9 (MMP-9), […] (F, SEQ ID NO:10), […] (R, SEQ ID NO:11); human IL-4, […] (F, SEQ ID NO:12), GCCTGTGGAACTGCTGTGC (R, SQ ID NO:13); human IL-12p40, CGGTCATCTGCCGCAAA (F, SEQ ID NO:14), […] (R, SEQ ID NO:15); human TNF-α, […] (F, SEQ ID NO:16), CAGGCAGAAGAGCGTGGTG (R, SEQ ID NO:17); human IFN-γ, […] (F, SEQ ID NO:18), […] (R, SEQ ID NO:19); human Cox2, […] (F, SEQ ID NO:20), […] […]

[5] = test system: MDDCs; assay: ELISA of cytokines in MDDC supernatants; type: cell-based, human; conditions: MDDCs differentiated with GRO-γ, recultured 3 days
Method: Supernatants from MDDCs alone (5×10^4), CD3^+ purified T-cells alone (isolated by the human CD3^+ Cell Isolation Kit, MACS, Miltenyi Biotec, Inc., 5×10^5), or MDDCs (5×10^4) co-cultured with CD3^+ purified T-cells (5×10^5) were harvested, and the concentrations of IL-4, IL-10, IL-12, INF-γ, IL-6 and TNF-α in supernatants were determined in triplicates using commercial ELISA kits according to the manufacturer's protocols (R&D systems).

[6] = test system: IDO in iDCs; assay: Intracellular IDO staining, confocal microscopy; type: cell-based, human; conditions: iDCs differentiated in presence of GRO-γ
Method: MDDCs were generated in the presence or absence of GRO-γ and then analyzed for the intracellular expression of the IDO protein. Cells (5×10^4) were plated onto poly-L-lysine-coated glass slides for 15 min, and washed twice quickly with 0.5 mL PBS. Cells were fixed by adding 0.5 mL of 1% paraformaldehyde (Sigma-Aldrich) for 10 minutes, and then subsequently washed with PBS three times and incubated in 0.5 mL of 1% BSA/PBS for 30 min at room temperature. Cells were washed with 0.1% (v/v) NP-40/PBS three times, and then incubated with 0.5% BSA/PBS containing 1:50 diluted mouse anti-human IDO antibody (Chemicon Inc, Temecula, Calif., USA) at room temperature for 1 h. Cells were further washed with 0.1% (v/v) NP-40/PBS to remove unbound antibody, and then incubated with 1:150 diluted anti-mouse IgG conjugated with DyLight 488 (Sigma-Aldrich) for 1 h at room temperature. After three final washes with 0.1% (v/v) NP-40/PBS, the slides were mounted with 10% Glycerol/PBS and sealed with nail polish. Fluorescent images were captured using a Leica TCS SP5 camera (Leica Camera AG, Solms, Germany).

[7] = test system: BMDCs from C57BL/6 mice; assay: FACS of CD11b+ Gr-1+ cells in mouse BMDCs; type: cell-based; conditions: GM-CSF with or without GRO-γ, six days
Method: as §1
(§2) Murine bone marrow-derived dendritic cells (BM-DCs) were harvested and differentiated into dentritic cells as previously described (Song et al., 2011). Briefly, bone marrow cells from C57BL/6 mice were cultured at a density of 2×10^5 cells/mL in petri dishes containing 10 mL of complete RPMI-1640 medium with 200 U/mL (20 ng/mL) recombinant mouse GM-CSF in the presence or absence of recombinant mouse GRO chemokine. On day 3, half of the volume of the culture medium was replaced by complete RPMI medium containing 20 ng/mL of […] combined with or without GRO. On day 6, BMDCs from the different treatment groups were collected from each dish, washed and characterized.

[8] = test system: CD11b+ Gr-1+ BMDCs; assay: ARG-1 and iNOS expression in mouse BMDCs; type: cell-based
Method: Total RNA was extracted with the Trizol reagent and converted to cDNA using a ReverTra Ace set (Toyobo Life Science, Osaka, Japan), according to manufacturer's instructions. Real-time PCR analysis was performed using an ABI Prism 7900 system (Applied Biosystems, Foster City, Calif., USA). Samples were treated according to the following program: […], 94° C. for 10 min, and 40 cycles of 95° C. for 15 s and 60° C. for 1 min. Analyses were performed in triplicate. For each sample, the cycle threshold (Ct) values were determined. Results were normalized to the GAPDH gene on the same plate. The levels of mRNA expression in different cell groups were calculated using the 2ΔCt method. Intron-spanning primers specific for each gene were designed. Their sequences are as follows: human GAPDH, […] (forward primer, F, SEQ ID NO:4), […] (reverse primer, R, SEQ ID NO:5); human IL-10, […] (F, SEQ ID NO:6), […] (R, SEQ ID NO:7); human IDO, […] (F, SEQ ID NO:8), TGACCTTTGCCCCACACAT (R, SEQ ID NO:9); human matrix-metallopeptidase-9 (MMP-9), […] (F, SEQ ID NO:10), […] (R, SEQ ID NO:11); human IL-4, […] (F, SEQ ID NO:12), GCCTGTGGAACTGCTGTGC (R, SQ ID NO:13); human IL-12p40, CGGTCATCTGCCGCAAA (F, SEQ ID NO:14), […] (R, SEQ ID NO:15); human TNF-α, […] (F, SEQ ID NO:16), CAGGCAGAAGAGCGTGGTG (R, SEQ ID NO:17); human IFN-γ, […] (F, SEQ ID NO:18), […] (R, SEQ ID NO:19); human Cox2, […] (F, SEQ ID NO:20), […] (R, SEQ ID NO:21); human PD-L1, […] (F, SEQ ID NO:22), […] (R, SEQ ID NO:23); human PD-L2, […] (F, SEQ ID NO:24), […] (R, SEQ ID NO:25); human TGF-β, […] (F, SEQ ID NO:26), […] (R, SEQ ID NO:27); human IL-6, […] (F, SEQ ID NO:28), […] (R, SEQ ID NO:29); IL-1β, […] (F, SEQ ID NO:30), […] (R, SEQ ID NO:31); mouse GAPDH, GATGCAGGGATGATGTTC (F, SEQ ID NO:32), TGCACCACCAACTGCTTAG (R, SEQ ID NO:33); mouse Arginase 1(Arg-1), […] (F, SEQ ID NO:34), […] (R, SEQ ID NO:35); mouse iNOS, […] (F, SEQ ID NO:36), […] (R, SEQ ID NO:37); mouse IFN-γ, […] (F, SEQ ID NO:38), […] (R, SEQ ID NO:39).
as §2

Molecule: GRO-α: recombinant human GRO chemokine CXCL1 (SEQ ID NO:1), PeproTech
- effect on CD40 expression [1]: significant inhibitory effects

Molecule: GRO-γ: recombinant GRO chemokine CXCL3 (SEQ ID NO:3); human from PeproTech, mouse from R&D Systems
- effect on CD40 expression [1]: significant inhibitory effects
- surface expression of CD40, CD83, CD80, CD11c, CD86 and DC-SIGN ([1]; iDCs, recombinant GRO-γ 250 ng/mL vs absence): significantly reduced
- DC-SIGN expression ([1]; mDCs, addition of GRO-γ): not affected
- endocytic activity of iDCs ([2]; GRO-γ 250 ng/mL): significantly down-regulated
- ability of mDCs to stimulate T-cell proliferation in mixed lymphocyte reaction ([3]; GRO-γ 250 ng/mL): significantly down-regulated
- expression levels of IL-10, IL-4, TGF-β, IL-1β, IL-6, COX2, PD-L1, PD-L2, MMP-9 and IDO genes [4]: significantly up-regulated
- mRNA levels of TNF-α, IFN-γ and IL-12 [4]: significantly down-regulated
- levels of IFN-γ and IL-12 in supernatants [5]: reduced levels
- levels of IL-4 and IL-10 in supernatants [5]: elevated levels
- intracellular expression of IDO [6]: increase in intracellular expression
- percentage (frequency) of double positive CD11b+ Gr-1+ cells in BMDCs [7]: did not depend on the presence of GRO-γ; also recorded: similar
- protein expression and enzymatic activity of Arg-1 and iNOS ([8]; GRO-γ treated BMDCs): increased
- mRNA levels of ARG-1 and iNOS ([8]; GRO-γ-treated BMDCs vs BMDCs): elevated
- expression of the Arg-1 gene, the iNOS gene, and the MDSC-related genes ([8]; presence of GRO-γ during BMDC differentiation): up-regulated

Molecule: O=C(Nc1ccc([N+](=O)[O-])cc1O)Nc1ccccc1Br [SB225002, N-(2-Hydroxy-4-nitrophenyl)-N′-(2-bromophenyl) urea, reference compound]
- reversal of suppressive effect of GRO-γ on selected surface markers ([1]; iDCs and mDCs, SB225002 250 nM pretreatment 30 min plus GRO-γ): significantly reversed
- DC-SIGN expression ([1]; iDCs and mDCs, addition of SB225002 with GRO-γ): not affected
- blocking of GRO-γ effect on endocytic activity of iDCs ([2]; SB225002 250 nM plus GRO-γ): blocked
- blocking of GRO-γ effect on ability of mDCs to stimulate T-cell proliferation ([3]; SB225002 250 nM plus GRO-γ): blocked
- reversal of induction of ARG-1 and iNOS genes ([8]; GM-CSF/GRO-γ/SB225002 treated BMDCs): reversed the induction
